In US20210137934A1, “METHODS OF IDENTIFYING MYC-DRIVEN AND LIPOGENESIS-DEPENDENT NEOPLASMS AND METHODS OF TREATING THE SAME” (The Board of Trustees of the Leland Stanford Junior …, priority 2017, published 2021):
Entries after “also recorded” stand apart in the source; their conditions may differ.

Key:
[1] = test system: human lymphoma B-cell line (P493-6); assay: In vitro cell proliferation by total live cell counts, P493-6; format: cell-based; details: P493-6 cells, various concentrations
Protocol: (§1) Cell culture conditions. P493-6 cells are cultured in Gibco's RPM11640 media under normal culture conditions of 20% O2, 4% CO2, and 37° C. P493 cells are suspension cells, and they are kept at 0.2-1.8 million cells/ml density to avoid confluency. In order to turn off Myc, 1 μg/ml of tetracycline is applied to the media for 48 hours to completely suppress Myc. Mouse-derived renal carcinoma line E28 and human RCC 786-O cell line are cultured for in vitro experiments under normal culture conditions of 20% O2, 4% CO2, and 37° C. 786-O and E28 cells are maintained in Dulbecco's Modified Eagle Medium (DMEM), which is supplemented with 10% fetal bovine serum (FBS), 1% L-glutamine, 1% sodium pyruvate, 1% nonessential amino acids, and Antibiotic-Antimycotic. Trypsin-EDTA is used to passage E28 and 786-O cells. All cell culture reagents are purchased from Gibco® (Thermo Fisher Scientific Inc.).
(§2) Small molecule inhibitors. The small molecule, TOFA (Sigma), diluted in dimethyl sulfoxide (DMSO) to the desired concentrations is added to cell culture medium to achieve inhibition of ACACA. TOFA is an allosteric inhibitor of ACACA, the enzyme which catalyzes the rate-limiting step of fatty acid synthesis. Various concentrations of TOFA are administered to cells in culture over time to assess dose-response suppression of proliferation. For in vivo treatment of mice, 25 mg/kg TOFA is administered daily by intraperitoneal injections (IP). The stock TOFA is diluted in DMSO to 10 mg/ml, such that the final injected volume is around 50 μl since the mice weigh about 20 g.
(§3) Cell counting. A volume of cells is removed from culture medium and mixed with an equal volume of 0.4% Trypan blue stain. Then 10 μl hemocytometer for cell counting. Viable cell counts are used as a measure of cell proliferation.

RCC (E28) cells = assay: In vitro cell proliferation by total live cell counts, E28; format: cell-based, mouse; details: for cell growth / proliferation (total live cell counts): various concentrations
Protocol: as §1, §2, §3

PGs and PIs [2] = assay: DESI-MSI lipid profile in transgenic MYC-induced RCC; format: in vivo, mouse
Protocol: as §2
(§4) Desorption Electrospray Ionization Mass Spectrometry Imaging (DESI-MSI). DESI-MSI is used for generating two-dimensional chemical maps of various tissues sections in order to assess the lipid profile of an organ. Tissue sections of 16 μm thick are imaged by this method using a lab-built DESI-MSI source coupled to an LTQ-Orbitrap XL mass spectrometer (Thermo Fisher Scientific, MA), and the mass spectra are acquired in negative ion mode using the Orbitrap as the mass analyzer at 60,000 resolving power. […] All tissues are histopathologically evaluated after imaging using standard hematoxylin and eosin (H&E) staining, to ensure a correct interpretation of lipid signals. […]

PGs and PIs [3] = assay: DESI-MSI lipid profile in human RCC xenograft; format: in vivo, mouse
Protocol: as §2, §4

[4] = test system: human RCC tumor derived cell line, 786-0; assay: Human RCC 786-O cell line treated in vitro; format: cell-based; details: 786-0 cell line treated in vitro
Protocol: as §1
as §2, with “For in vivo treatment of mice, 25 mg/kg TOFA is administered daily by intraperitoneal injections (IP). The stock TOFA is diluted in DMSO to 10 mg/ml, such that the final injected volume is around 50 μl since the mice weigh about 20 g.” left out

[5] = test system: transgenic MYC-induced RCC; assay: Transgenic MYC-induced RCC mouse model, tumor growth (kidney weight and size, histology); format: in vivo; details: 25 mg/kg daily IP
Protocol: as §2

[6] = test system: human RCC 786-O xenograft; assay: Human RCC 786-O xenograft in NSG mice; format: in vivo, mouse; details: 25 mg/kg daily IP
Protocol: as §1
as §2, with “For in vivo treatment of mice, 25 mg/kg TOFA is administered daily by intraperitoneal injections (IP). The stock TOFA is diluted in DMSO to 10 mg/ml, such that the final injected volume is around 50 μl since the mice weigh about 20 g.” left out

HCC (EC4) cells = assay: In vitro cell growth, EC4; format: cell-based, mouse
Protocol: as §2, with “g. Cell counting. A volume of cells is removed from culture medium and mixed with an equal volume of 0.4% Trypan blue stain. Then 10 μl hemocytometer for cell counting. Viable cell counts are used as a measure of cell proliferation.” for “g.”

T-ALL (4188) cells = assay: In vitro cell growth, 4188; format: cell-based, mouse; details: 4188 T-ALL cells
Protocol: as §2, with “g. Cell counting. A volume of cells is removed from culture medium and mixed with an equal volume of 0.4% Trypan blue stain. Then 10 μl hemocytometer for cell counting. Viable cell counts are used as a measure of cell proliferation.” for “g.”

## CCCCCCCCCCCCCCOc1ccc(C(=O)O)o1 [TOFA, 5-(tetradecyloxy)-2-furancarboxylic acid]
[1]
  cell growth / proliferation (total live cell counts): growth inhibited in vitro in a dose-dependent manner; also recorded: decreased in a dose-dependent manner
RCC (E28) cells; oleate added
  rescue of growth inhibition by addition of oleate: partially rescuable; also recorded: partially rescued
RCC (E28) cells
  cell growth / proliferation (total live cell counts): growth inhibited in vitro in a dose-dependent manner; also recorded: similar
PGs and PIs [2]
  PGs and PIs by DESI-MSI during tumor initiation and regression: suppressed; also recorded: block PGs and PIs
PGs and PIs [3]
  PGs and PIs by DESI-MSI: block PGs and PIs
[4]
  tumor cell response in vitro: exhibited tumor regression
[5]; treatment at week 2 (15 day MYC on tumor), kidney weight and size, histology
  tumor progression / regression, treatment after tumor onset: regressed; also recorded: induced tumor regression; also recorded: significantly reduces kidney tumor progression
[5]; treatment from week 0 (day 0 MYC on)
  tumor growth / tumorigenesis, treatment before tumor onset: blocked; also recorded: prevented tumor growth; also recorded: completely prevents tumorigenesis
[6]
  xenograft tumor growth: regresses; also recorded: exhibited tumor regression

## C/C=C/C/C=C/CCC(=O)[C@H]1O[C@H]1C(N)=O [cerulenin, Cerulenin]
[1]
  cell growth / proliferation (total live cell counts): growth inhibited in vitro in a dose-dependent manner
[1]; listed as Cerulenin
  cell growth / proliferation (total live cell counts): decreased in a dose-dependent manner
RCC (E28) cells
  cell growth / proliferation (total live cell counts): growth inhibited in vitro in a dose-dependent manner
HCC (EC4) cells
  cell growth: growth inhibited in vitro in a dose-dependent manner
T-ALL (4188) cells
  cell growth: growth inhibited in vitro in a dose-dependent manner
